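Values below derive from 48-hour exposures of cells grown in 96-well plates, with endpoints linearly interpolated between the two concentrations bracketing the appropriate inhibition level. TGI: concentration producing complete growth inhibition.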

Test systems include ACHN renal; COLO 205 colon; DU-145 prostate; IGROV1 ovarian; MDA-N; NCI-H23 lung; NCI-H460 lung; NCI/ADR-RES ovarian; OVCAR-4 ovarian; OVCAR-8 ovarian; SK-MEL-5 melanoma; SK-OV-3 ovarian; U251 CNS.
Holding throughout (assay): DTP human tumour cell line panel, 48 h

A word on the TGI: it is the concentration at which net growth stops. Take `CCCCCCc1cc2cc(C(=O)Nc3nc(C45CC6CC(CC(C6)C4)C5)cs3)c(=O)oc2cc1O`: the TGI is 20.8 µM with ACHN renal; 32.6 µM in the experiment on COLO 205 colon; > 100 µM in the experiment on DU-145 prostate; 46.9 µM in the experiment on IGROV1 ovarian; 40.2 µM in the experiment with MDA-N; 33.2 µM in the experiment with NCI-H23 lung. The TGI was 50.3 µM in the experiment with NCI-H460 lung; 80.5 µM in the experiment with NCI/ADR-RES ovarian; 42.1 µM in the experiment with OVCAR-4 ovarian; 43.1 µM in the experiment with OVCAR-8 ovarian; 24.7 µM with SK-MEL-5 melanoma; 49 µM with SK-OV-3 ovarian. In the experiment with U251 CNS, this compound displayed a TGI of 28.6 µM.

For the compound `CCCCOc1ccc(/C=C/C2=[N+](CCO)CCO2)cc1`, the TGI in the experiment with ACHN renal was > 100 µM; in the experiment on COLO 205 colon, 54.3 µM; with DU-145 prostate, > 100 µM; in the experiment on IGROV1 ovarian it was > 100 µM; in the experiment on MDA-N, > 100 µM; in the experiment with NCI-H23 lung, > 100 µM. Besides, the TGI in the experiment on NCI-H460 lung, in the experiment with NCI/ADR-RES ovarian, in the experiment with OVCAR-4 ovarian, in the experiment with OVCAR-8 ovarian, with SK-MEL-5 melanoma and in the experiment on SK-OV-3 ovarian was > 100 µM each time. Also, the TGI in the experiment with U251 CNS was > 100 µM.

In the case of `O=[N+]([O-])C1=Cc2c(O)ccc(O)c2C2OC=CC12` (stereo not drawn), the TGI in the experiment on ACHN renal was 29.1 µM; with COLO 205 colon, > 63.8 µM; in the experiment on DU-145 prostate, > 54.6 µM; in the experiment with IGROV1 ovarian, 45.4 µM; with MDA-N it was 11.4 µM; in the experiment on NCI-H23 lung, 32.4 µM. In addition, the TGI in the experiment on NCI-H460 lung was 38.2 µM; in the experiment on NCI/ADR-RES ovarian it was 55.9 µM; in the experiment with OVCAR-4 ovarian it was 30.2 µM; in the experiment on OVCAR-8 ovarian, > 56.2 µM; with SK-MEL-5 melanoma, 26.2 µM; in the experiment with SK-OV-3 ovarian it was > 100 µM. For the same compound, the TGI in the experiment on U251 CNS came out at 32.6 µM.

On to `CCOP(=O)(OCC)/C(C#N)=C/c1nc[nH]c1C`, for which the TGI in the experiment on ACHN renal, in the experiment on COLO 205 colon, with DU-145 prostate, with IGROV1 ovarian, with MDA-N and in the experiment on NCI-H23 lung was > 100 µM throughout. Also, the TGI with NCI-H460 lung, with NCI/ADR-RES ovarian, in the experiment on OVCAR-4 ovarian, in the experiment on OVCAR-8 ovarian, in the experiment on SK-MEL-5 melanoma and in the experiment with SK-OV-3 ovarian was > 100 µM each time. Further, in the experiment with U251 CNS, the TGI was > 100 µM.

Regarding `CC(=O)N1N=C(c2ccccc2)NC(=O)C1c1cc(C)c(O)c(C)c1` (stereo not drawn), the TGI with ACHN renal was 44 µM; with COLO 205 colon it was > 100 µM; in the experiment on DU-145 prostate, 57.5 µM; in the experiment with IGROV1 ovarian it was 72.7 µM; with MDA-N it was > 100 µM; in the experiment on NCI-H23 lung it was 64.1 µM. In addition, the TGI was > 100 µM in the experiment with NCI-H460 lung; 47.7 µM with NCI/ADR-RES ovarian; 43.3 µM in the experiment on OVCAR-4 ovarian; 31.4 µM in the experiment on OVCAR-8 ovarian; 56.4 µM in the experiment on SK-MEL-5 melanoma; 34.3 µM with SK-OV-3 ovarian. For the same compound, the TGI with U251 CNS worked out at 35 µM.

With `CCOC(=O)c1nc(SC)sc1NC(=O)c1ccc(OC)cc1`, the TGI in the experiment with ACHN renal, in the experiment with COLO 205 colon, in the experiment on DU-145 prostate, in the experiment on IGROV1 ovarian, in the experiment on MDA-N and in the experiment with NCI-H23 lung was > 100 µM throughout. Further, the TGI with NCI-H460 lung is > 100 µM; with NCI/ADR-RES ovarian, > 100 µM; with OVCAR-4 ovarian it was 89.9 µM; with OVCAR-8 ovarian it was > 100 µM; in the experiment on SK-MEL-5 melanoma it was > 100 µM; with SK-OV-3 ovarian, > 100 µM. The same compound yielded a TGI with U251 CNS of 55.4 µM.

For the compound `CCCCOC(=O)Nc1ccc(S(=O)(=O)Nc2c(Cl)cccc2Cl)cc1`, the TGI in the experiment on ACHN renal was > 100 µM; with COLO 205 colon, 34.3 µM; in the experiment with DU-145 prostate, > 100 µM; with IGROV1 ovarian, 79.5 µM; with MDA-N, > 100 µM; in the experiment on NCI-H23 lung it was > 100 µM. The TGI in the experiment with NCI-H460 lung is > 100 µM; in the experiment with NCI/ADR-RES ovarian, 65.8 µM; in the experiment on OVCAR-4 ovarian, 42.5 µM; in the experiment with OVCAR-8 ovarian, 64.6 µM; in the experiment with SK-MEL-5 melanoma, 28 µM; with SK-OV-3 ovarian it was 75.3 µM. The concentration for total growth inhibition (TGI) with U251 CNS is > 100 µM.

Take `Cc1cc2c(cc1Cl)SSc1cc(Cl)c(C)cc1S(=O)(=O)Nc1nc(N)nn1C(O)n1nc(N)nc1NS2(=O)=O`: the TGI in the experiment on ACHN renal, in the experiment with COLO 205 colon, in the experiment on DU-145 prostate, in the experiment with IGROV1 ovarian, with MDA-N and with NCI-H23 lung was > 10 µM throughout. The TGI in the experiment on NCI-H460 lung, in the experiment with NCI/ADR-RES ovarian, with OVCAR-4 ovarian, in the experiment on OVCAR-8 ovarian, in the experiment on SK-MEL-5 melanoma and in the experiment on SK-OV-3 ovarian was > 10 µM throughout. Moreover, the TGI in the experiment with U251 CNS is > 10 µM.

As to `COC(=O)C12C(=O)CC3CCC1C32C(=O)OC` (stereo not drawn), the TGI with ACHN renal, with COLO 205 colon, in the experiment on DU-145 prostate, with IGROV1 ovarian, in the experiment with MDA-N and with NCI-H23 lung was > 100 µM each time. In addition, the TGI in the experiment on NCI-H460 lung, in the experiment with NCI/ADR-RES ovarian, in the experiment on OVCAR-4 ovarian, in the experiment on OVCAR-8 ovarian, in the experiment with SK-MEL-5 melanoma and in the experiment on SK-OV-3 ovarian was > 100 µM throughout. The TGI with U251 CNS is > 100 µM.

Take `COc1cc(/C=C2\CC3C4CC=C5C[C@@H](O)CC[C@]5(C)C4CC[C@]3(C)\C2=N\O)cc(OC)c1OC` (stereo partly drawn): the total growth inhibition concentration (TGI) in the experiment with ACHN renal was 17.6 µM; with COLO 205 colon it was 16.9 µM; in the experiment on DU-145 prostate, > 100 µM; in the experiment with IGROV1 ovarian, > 100 µM; with MDA-N, 69.6 µM; in the experiment on NCI-H23 lung it was 55.5 µM. Besides, the TGI with NCI-H460 lung is 54.9 µM; in the experiment with NCI/ADR-RES ovarian, 74.3 µM; in the experiment with OVCAR-4 ovarian, 68.8 µM; with OVCAR-8 ovarian, > 100 µM; with SK-MEL-5 melanoma, 19.2 µM; with SK-OV-3 ovarian, > 100 µM. In the experiment on U251 CNS, this compound came in with a TGI of 28.2 µM.

For `C[N+](C)(N)Cc1nc(-c2ccc(Cl)cc2)no1`, the TGI with ACHN renal, in the experiment on COLO 205 colon, in the experiment on DU-145 prostate, in the experiment with IGROV1 ovarian, in the experiment on MDA-N and in the experiment with NCI-H23 lung was > 100 µM in each case. Also, the TGI in the experiment on NCI-H460 lung, in the experiment with NCI/ADR-RES ovarian, in the experiment on OVCAR-4 ovarian, in the experiment on OVCAR-8 ovarian, with SK-MEL-5 melanoma and in the experiment on SK-OV-3 ovarian was > 100 µM each time. The TGI with U251 CNS was > 100 µM.

For the compound `C/C(=N/NC(=S)N1CCCCCC1)c1cccc(/C(C)=N\NC(=S)N2CCCCCC2)n1`, the TGI in the experiment on ACHN renal was 2.87 µM; with COLO 205 colon, 3.23 µM; in the experiment with DU-145 prostate it was 6.04 µM; in the experiment with IGROV1 ovarian, 2.86 µM; with MDA-N, 4.9 µM; in the experiment on NCI-H23 lung, 5.44 µM. Besides, the TGI was 6.78 µM in the experiment on NCI-H460 lung; 3.86 µM in the experiment on NCI/ADR-RES ovarian; 2.44 µM in the experiment with OVCAR-4 ovarian; 3.11 µM with OVCAR-8 ovarian; 2.72 µM in the experiment with SK-MEL-5 melanoma; 4.1 µM with SK-OV-3 ovarian. The TGI in the experiment with U251 CNS amounted to 4.77 µM.

`Cc1ccc2[nH]c3c(c2c1)C1CCC(C(C)(C)C)CC1C1C(=O)N(c2ccc(Oc4ccccc4)cc2)C(=O)C31` (stereo not drawn): the TGI is > 100 µM in the experiment on ACHN renal; > 100 µM in the experiment on COLO 205 colon; > 100 µM in the experiment on DU-145 prostate; > 100 µM with IGROV1 ovarian; > 100 µM with MDA-N; 58.9 µM with NCI-H23 lung. The TGI in the experiment on NCI-H460 lung is > 100 µM; in the experiment with NCI/ADR-RES ovarian, > 100 µM; with OVCAR-4 ovarian it was 42.6 µM; in the experiment with OVCAR-8 ovarian, 38.6 µM; in the experiment on SK-MEL-5 melanoma, > 100 µM; in the experiment on SK-OV-3 ovarian, 94.7 µM. The TGI with U251 CNS worked out at 21.6 µM.

Regarding `CCOC(=O)Cn1nnc2ccc(Nc3nc4ccccc4nc3C(=O)OCC)cc21`, the TGI in the experiment on ACHN renal, in the experiment on COLO 205 colon, with DU-145 prostate, in the experiment with IGROV1 ovarian, with MDA-N and in the experiment on NCI-H23 lung was > 100 µM each time. Besides, the TGI in the experiment on NCI-H460 lung, in the experiment with NCI/ADR-RES ovarian, in the experiment on OVCAR-4 ovarian, with OVCAR-8 ovarian, in the experiment on SK-MEL-5 melanoma and in the experiment with SK-OV-3 ovarian was > 100 µM in each case. For the same compound, the TGI in the experiment on U251 CNS was > 100 µM.

For the compound `CC(=O)Oc1ccc2c(c1)O/C(=C\c1ccc(N(C)C)cc1)C2=O`, the TGI in the experiment on ACHN renal, with COLO 205 colon, in the experiment on DU-145 prostate, in the experiment with IGROV1 ovarian, in the experiment with MDA-N and in the experiment on NCI-H23 lung was > 100 µM each time. Besides, the TGI with NCI-H460 lung, with NCI/ADR-RES ovarian, with OVCAR-4 ovarian, in the experiment on OVCAR-8 ovarian, with SK-MEL-5 melanoma and in the experiment on SK-OV-3 ovarian was > 100 µM in each case. For the same compound, the TGI in the experiment with U251 CNS is > 100 µM.

For the compound `O=C1O/C(=C(\Br)c2ccc([N+](=O)[O-])cc2)c2ccccc21`, the TGI in the experiment on ACHN renal, in the experiment on COLO 205 colon, with DU-145 prostate, in the experiment with IGROV1 ovarian, in the experiment on MDA-N and with NCI-H23 lung was > 100 µM throughout. Moreover, the concentration for total growth inhibition (TGI) in the experiment on NCI-H460 lung, with NCI/ADR-RES ovarian, with OVCAR-4 ovarian, in the experiment on OVCAR-8 ovarian, with SK-MEL-5 melanoma and in the experiment on SK-OV-3 ovarian was > 100 µM throughout. Besides, the TGI with U251 CNS was > 100 µM.

Source of the values: PubChem BioAssay (NCI).
